Each structure is given as a SMILES string.

For test [1], the target named is T1, B1R receptor of the rat (rB1R) (Rattus norvegicus, UniProt P97583).
T1 construct: expressed in transfected cells; host or cells: CHO K1 cells
T1 sequence (P97583 1-337): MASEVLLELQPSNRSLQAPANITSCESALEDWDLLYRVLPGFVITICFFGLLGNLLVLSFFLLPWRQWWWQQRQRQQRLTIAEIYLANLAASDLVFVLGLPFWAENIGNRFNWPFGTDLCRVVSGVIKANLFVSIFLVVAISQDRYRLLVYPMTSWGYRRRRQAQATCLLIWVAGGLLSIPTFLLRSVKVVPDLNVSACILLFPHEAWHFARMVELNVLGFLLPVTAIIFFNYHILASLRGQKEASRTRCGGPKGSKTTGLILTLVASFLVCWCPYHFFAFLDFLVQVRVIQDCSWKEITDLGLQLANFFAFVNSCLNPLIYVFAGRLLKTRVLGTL
The experiment in a line: Functional investigation on the bradykinin receptor 1 (B1R), FLIPR Ca2+ assay, rB1R cells. In kind it is cell-based. The procedure: (§1) The agonistic or antagonistic action of substances can be quantified on the bradykinin receptor 1 (B1R) of the human and rat species with ectopically expressing cell lines (CHO K1 cells) and with the aid of a Ca^2+-sensitive dyestuff (Fluo-4) in a fluorescent imaging plate reader (FLIPR). The figure in % activation is based on the Ca^2+ signal after addition of Lys-Des-Arg^9-bradykinin (0.5 nM) or Des-Arg^9-bradykinin (100 nM). Antagonists lead to a suppression of the Ca^2+ inflow after addition of the agonist. % inhibition compared with the maximum achievable inhibition is stated.
(§2) The agonistic or antagonistic action of substances can be determined on the bradykinin receptor 1 (B1R) of the human and rat species with the following assay. In accordance with this assay, the Ca^2+ inflow through the channel is quantified with the aid of a Ca^2+-sensitive dyestuff (type Fluo-4, Molecular Probes Europe BV, Leiden Holland) in a fluorescent imaging plate reader (FLIPR, Molecular Devices, Sunnyvale, USA).
(§3) Chinese hamster ovary cells (CHO K1 cells) transfected stably with the human B1R gene (hB1R cells) or the B1R gene of the rat (rB1R cells) are used. For functional studies, these cells are plated out on black 96-well plates with a clear base (BD Biosciences, Heidelberg, Germany or Greiner, Frickenhausen, Germany) in a density of 20,000-35,000 cells/well. The cells are left overnight at 37° C. and 5% CO2 in culture medium (hB1R cells: Nutrient Mixture Ham's F12, Gibco Invitrogen GmbH, Karlsruhe, Germany or DMEM, Sigma-Aldrich, Taufkirchen, Germany; rB1R cells: D-MEM/F12, Gibco Invitrogen GmbH, Karlsruhe, Germany) with 10 vol. % FBS (foetal bovine serum, Gibco Invitrogen GmbH, Karlsruhe, Germany or PAN Biotech GmbH, Aidenbach, Germany). On the following day, the cells are loaded for 60 min at 37° C. with 2.13 μM Fluo-4 (Molecular Probes Europe BV, Leiden Holland) in HBSS buffer (Hank's buffered saline solution, Gibco Invitrogen GmbH, Karlsruhe, Germany) with 2.5 mM probenecid (Sigma-Aldrich, Taufkirchen, Germany) and 10 mM HEPES (Sigma-Aldrich, Taufkirchen, Germany). The plates are then washed 2× with HBSS buffer, and HBSS buffer which additionally contains 0.1% BSA (bovine serum albumin; Sigma-Aldrich, Taufkirchen, Germany), 5.6 mM glucose and 0.05% gelatine (Merck KGaA, Darmstadt, Germany) is added. After a further incubation of 20 minutes at room temperature, the plates are inserted into the FLIPR for the Ca^2+ measurement.
(§4) Alternatively, the plates are washed with buffer A (15 mM HEPES, 80 mM NaCl, 5 mM KCl, 1.2 mM CaCl2, 0.7 mM MgSO4, 2 g/l glucose, 2.5 mM probenecid), buffer A is added and the plates are loaded with 2.5 μM Fluo-4 and 0.025% Pluronic F127 (Sigma-Aldrich, Taufkirchen, Germany). Thereafter, the cells are washed 2× with buffer A and incubated for 30 minutes at room temperature with buffer A, which additionally contains 0.05% BSA and 0.05% gelatine, and thereafter inserted into the FLIPR for the Ca^2+ measurement.
(§5) The Ca^2+-dependent fluorescence is measured here before and after addition of substances (λex=488 nm, λem=540 nm). Quantification is by measurement of the highest fluorescence intensity (FC, fluorescence counts) over time.
(§6) The FLIPR protocol consists of 2 additions of substance. Test substances (10 μM) are first pipetted on to the cells and the Ca^2+ inflow is compared with the control (hB1R: Lys-Des-Arg^9-bradykinin>=50 nM; rB1R: Des-Arg^9-bradykinin 10 μM). This gives the result in % activation based on the Ca^2+ signal after addition of Lys-Des-Arg^9-bradykinin (>=50 nM) or Des-Arg^9-bradykinin (10 μM). After incubation for 10-20 minutes, Lys-Des-Arg^9-bradykinin (hB1R) or Des-Arg^9-bradykinin (rB1R) in the concentration of the EC80 is applied and the inflow of Ca^2+ is likewise determined. Antagonists lead to a suppression of the Ca^2+ inflow. % inhibition compared with the maximum achievable inhibition is calculated.
(§7) In order to determine the IC50 value, the substances are added in various concentrations. […]

For test [2], the target named is T2, human B1R receptor (hB1R) (Homo sapiens, UniProt P46663).
T2 construct: expressed in transfected cells; host or cells: CHO K1 cells
T2 sequence (P46663 1-353): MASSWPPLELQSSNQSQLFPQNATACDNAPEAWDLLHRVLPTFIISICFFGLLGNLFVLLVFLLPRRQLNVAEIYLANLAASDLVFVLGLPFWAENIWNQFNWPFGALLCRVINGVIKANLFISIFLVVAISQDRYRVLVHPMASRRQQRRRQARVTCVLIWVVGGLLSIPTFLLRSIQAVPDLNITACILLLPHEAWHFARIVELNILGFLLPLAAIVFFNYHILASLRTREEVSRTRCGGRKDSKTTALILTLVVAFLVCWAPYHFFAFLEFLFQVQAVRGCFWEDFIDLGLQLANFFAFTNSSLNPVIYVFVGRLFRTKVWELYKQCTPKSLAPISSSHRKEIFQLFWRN
The experiment in a line: Functional investigation on the bradykinin receptor 1 (B1R), FLIPR Ca2+ assay, hB1R cells. In kind it is cell-based. The procedure:
as §1, §2, §3, §4, §5, §6, §7

Regarding `COc1cc(C)c(S(=O)(=O)N(C)Cc2nc3cccc(C(=O)N4CCC5(CC4)CCN(c4ccncc4)CC5)c3[nH]2)c(C)c1` [I_01, 4-methoxy-N,2,6-trimethyl-N-[[7-(9-pyridin-4-yl-3,9-diazaspiro[5.5]undecane-3-carbonyl)-1H-benzoimidazol-2-yl]-methyl]-benzenesulfonic acid amide], the “% Inhibition (rat B1R) at 10 μM” value in test [1] (10 µM) came out at 96%. The “% Inhibition (human B1R) at 10 μM” value in test [2] (10 µM) is recorded as 98%.

With `COc1cc(C)c(S(=O)(=O)N(C)CCc2nc3c(C(=O)N4CCC5(CC4)CCN(c4ccncc4)CC5)cccc3[nH]2)c(C)c1` [I_02, 4-methoxy-N,2,6-trimethyl-N-[2-[4-(9-pyridin-4-yl-3,9-diazaspiro[5.5]undecane-3-carbonyl)-1H-benzoimidazol-2-yl]-ethyl]-benzenesulfonic acid amide], the inhibition at 10 µM in test [1] amounted to 100%; in test [2], 97%.

Take `COc1cc(C)c(S(=O)(=O)N(C)Cc2nc3cccc(C(=O)N4CCC5(CCC(Oc6ccncc6)CC5)CC4)c3[nH]2)c(C)c1` [I_03, 4-methoxy-N,2,6-trimethyl-N-[[7-(9-pyridin-4-yloxy-3-azaspiro[5.5]undecane-3-carbonyl)-1H-benzoimidazol-2-yl]-methyl]-benzenesulfonic acid amide]: the inhibition at 10 µM in test [1] turned out to be 86%; in test [2], 99%. In the same order, the values of `COc1cc(C)c(S(=O)(=O)N(C)Cc2nc3cccc(C(=O)N4CCC5(CCC(N6CCC6)CC5)CC4)c3[nH]2)c(C)c1` [I_04, N-[[7-[9-(azetidin-1-yl)-3-azaspiro[5.5]undecane-3-carbonyl]-1H-benzoimidazol-2-yl]-methyl]-4-methoxy-N,2,6-trimethyl-benzenesulfonic acid amide] are 97% and 99%. In the case of `COc1cc(C)c(S(=O)(=O)N(C)Cc2nc3cccc(C(=O)N4CCC5(CCC(N6CC(F)(F)C6)CC5)CC4)c3[nH]2)c(C)c1` [I_05, N-[[7-[9-(3,3-difluoro-azetidin-1-yl)-3-azaspiro[5.5]undecane-3-carbonyl]-1H-benzoimidazol-2-yl]-methyl]-4-methoxy-N,2,6-trimethyl-benzenesulfonic acid amide], the figures for the inhibition at 10 µM in test [1] and in test [2] were 72% and 55%, respectively. Consider `COc1cc(C)c(S(=O)(=O)N(C)C(C)c2nc3cccc(C(=O)N4CCC5(CC4)CCN(c4ccncc4)CC5)c3[nH]2)c(C)c1` (centres unmarked) [I_06, 4-methoxy-N,2,6-trimethyl-N-[1-[7-(9-pyridin-4-yl-3,9-diazaspiro[5.5]undecane-3-carbonyl)-1H-benzoimidazol-2-yl]-ethyl]-benzenesulfonic acid amide], for which the inhibition at 10 µM is 90% in test [1] and 94% in test [2].

Turning to `CN(Cc1nc2cccc(C(=O)N3CCC4(CC3)CCN(c3ccncc3)CC4)c2[nH]1)S(=O)(=O)c1cccc2ccccc12` [I_07, N-methyl-N-[[7-(9-pyridin-4-yl-3,9-diazaspiro[5.5]undecane-3-carbonyl)-1H-benzoimidazol-2-yl]-methyl]-naphthalene-1-sulfonic acid amide], the inhibition at 10 µM in test [1] came out at 96%; in test [2], 98%. For the molecule `CN(Cc1nc2cccc(C(=O)N3CCC4(CC3)CCN(c3ccncc3)CC4)c2[nH]1)S(=O)(=O)c1ccccc1C(F)(F)F` [I_08, N-methyl-N-[[7-(9-pyridin-4-yl-3,9-diazaspiro[5.5]undecane-3-carbonyl)-1H-benzoimidazol-2-yl]-methyl]-2-(trifluoromethyl)-benzenesulfonic acid amide], the inhibition at 10 µM in test [1] stood at 99%; in test [2], 100%. For `COc1cc(C)c(S(=O)(=O)N(C)C(C)c2nc3cccc(C(=O)N4CCC5(CC4)CCN(S(=O)(=O)c4cccc6c4ccn6C)CC5)c3[nH]2)c(C)c1` (centres unmarked) [I_CC-60, 4-Methoxy-N,2,6-trimethyl-N-[1-[7-[9-[(1-methyl-1H-indol-4-yl)sulfonyl]-3,9-diazaspiro[5.5]undecane-3-carbonyl]-1H-benzoimidazol-2-yl]-ethyl]-benzenesulfonic acid amide], the inhibition at 10 µM in test [1] worked out at 101%.

What is called inhibition is the drop in the measured response relative to a control, in per cent.

These data come from patent US8232288B2, “Substituted benzimidazoles, benzothiazoles and benzoxazoles” (Gruenenthal GmbH, priority 2009, dated 2012).
